Reference: patent US12673975B2, “Cyclic peptide, cell scaffold material, cell separating material, and medium” (FUJIFILM Corporation, priority 2019, dated 2026)
Like-named read-outs stand apart in the source and are kept apart here. Starred links: 1 amine or outer side, 2 acyl side, 3 side chain; linkers in the order of their positions; H or OH if unused. Positions of bridges follow the written chain, without caps; N, C: chain ends. Non-standard residues stand in square brackets, D forms with d. Residues, ends and D or L forms follow the SMILES beside them. hCys = N[C@@H](CCS)C(=O)O; Orn = NCCC[C@H](N)C(=O)O; Dab = NCC[C@H](N)C(=O)O; X1 = O=C(C[*:2])[*:1]; X2 = O=C(C[*:1])[*:2]

Key:
human integrin αvβ5 = human integrin αvβ5 (Homo sapiens, UniProt P06756+P18084); test: Evaluation of integrin binding property (surface plasmon resonance, Biacore 3000, immobilized cyclic peptide)
Sequence of human integrin αvβ5 (P06756 31-1048): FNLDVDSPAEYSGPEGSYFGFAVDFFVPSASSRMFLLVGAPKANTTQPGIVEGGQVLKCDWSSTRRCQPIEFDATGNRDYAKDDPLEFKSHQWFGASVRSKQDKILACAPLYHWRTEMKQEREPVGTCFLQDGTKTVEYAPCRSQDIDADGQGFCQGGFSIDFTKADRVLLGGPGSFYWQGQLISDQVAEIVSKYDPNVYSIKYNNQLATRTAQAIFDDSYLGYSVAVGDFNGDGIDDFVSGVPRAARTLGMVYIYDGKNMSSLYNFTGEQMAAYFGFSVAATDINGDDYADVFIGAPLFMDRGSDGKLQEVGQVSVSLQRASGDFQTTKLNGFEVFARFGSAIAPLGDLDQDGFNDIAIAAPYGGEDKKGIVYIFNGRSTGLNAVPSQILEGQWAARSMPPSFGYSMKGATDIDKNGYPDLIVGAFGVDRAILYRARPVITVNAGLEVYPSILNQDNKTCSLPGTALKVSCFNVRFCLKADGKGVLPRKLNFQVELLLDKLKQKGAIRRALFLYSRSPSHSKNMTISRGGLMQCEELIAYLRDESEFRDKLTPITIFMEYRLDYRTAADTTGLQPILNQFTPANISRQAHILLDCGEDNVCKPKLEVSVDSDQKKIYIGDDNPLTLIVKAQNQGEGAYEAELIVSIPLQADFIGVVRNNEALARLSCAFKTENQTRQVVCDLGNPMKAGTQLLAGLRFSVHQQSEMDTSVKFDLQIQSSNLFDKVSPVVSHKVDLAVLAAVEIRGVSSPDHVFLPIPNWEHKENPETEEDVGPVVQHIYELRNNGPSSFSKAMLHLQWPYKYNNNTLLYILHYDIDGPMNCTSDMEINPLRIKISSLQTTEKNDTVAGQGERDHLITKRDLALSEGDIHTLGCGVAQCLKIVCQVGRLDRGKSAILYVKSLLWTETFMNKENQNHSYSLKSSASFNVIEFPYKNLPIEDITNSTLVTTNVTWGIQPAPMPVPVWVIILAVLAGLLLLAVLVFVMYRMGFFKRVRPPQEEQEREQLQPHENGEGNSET
Sequence of human integrin αvβ5 (P18084 24-799): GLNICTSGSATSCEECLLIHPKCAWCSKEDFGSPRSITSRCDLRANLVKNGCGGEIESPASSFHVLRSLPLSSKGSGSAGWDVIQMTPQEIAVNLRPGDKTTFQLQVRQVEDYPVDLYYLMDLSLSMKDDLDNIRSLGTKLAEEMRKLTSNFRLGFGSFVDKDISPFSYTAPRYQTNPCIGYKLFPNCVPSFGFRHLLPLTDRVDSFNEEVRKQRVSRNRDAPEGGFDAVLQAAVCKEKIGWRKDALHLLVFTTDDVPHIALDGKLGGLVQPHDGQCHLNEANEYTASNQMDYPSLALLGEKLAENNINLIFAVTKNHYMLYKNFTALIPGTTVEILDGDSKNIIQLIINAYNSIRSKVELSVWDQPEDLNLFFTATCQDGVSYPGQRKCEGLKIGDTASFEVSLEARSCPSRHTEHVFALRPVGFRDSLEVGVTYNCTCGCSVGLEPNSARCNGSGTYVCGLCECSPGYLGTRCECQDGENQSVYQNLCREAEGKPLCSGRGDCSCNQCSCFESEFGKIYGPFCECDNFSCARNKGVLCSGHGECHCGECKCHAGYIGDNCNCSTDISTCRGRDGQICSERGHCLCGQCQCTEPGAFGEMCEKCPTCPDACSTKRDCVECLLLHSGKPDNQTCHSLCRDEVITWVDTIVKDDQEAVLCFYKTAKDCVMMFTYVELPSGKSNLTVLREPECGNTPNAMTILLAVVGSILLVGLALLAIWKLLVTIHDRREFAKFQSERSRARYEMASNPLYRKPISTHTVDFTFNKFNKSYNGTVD
Summary of the method: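 Human αvβ5 (30-1,000 nM) flowed for 10 min at 25 °C over immobilized cyclic peptide in 20 mM HEPES, 150 mM NaCl, 5 mM MgCl2, pH 7.4, followed by 30 min running buffer and 0.5 M EDTA regeneration. Dissociation constant from peptide minus unimmobilized channel, scored into standard grades.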

[1] = Evaluation of molecule stability (alkali treatment, residual rate by LC/MS); type: physicochemical; details: for Stability (molecule stability, residual rate of the cyclic peptide rank): alkali treatment, residual rate by LC/MS; for Performance evaluation: Stability (residual rate of cyclic peptide after alkali treatment): 500 μM peptide aqueous solution plus equivalent of 1 M sodium hydroxide, 15° C., 3 hours, LC/MS peak area
Summary of the method: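 Stability read as percent of summed LC/MS peak area remaining versus untreated peptide (C18, 45 °C, 10 mM ammonium formate pH 3, ESI positive/negative). Treatment: 500 μM peptide in water plus an equivalent of 1 M NaOH, 15 °C for 3 hours.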

[2] = surface plasmon resonance, immobilized cyclic peptide, human integrin αvβ5, read-out: Binding activity (integrin binding property, dissociation constant rank)
[3] = SPR, 25° C., HEPES buffer with 5 mM magnesium chloride, integrin 30-1,000 nM, read-out: Performance evaluation: Binding activity (dissociation constant between the cyclic peptide and human integrin αvβ5)

Compound	Kd (human integrin αvβ5; [2]) [nM]	Kd (human integrin αvβ5; [3]) [nM]	Stability (molecule stability, residual rate of the cyclic peptide rank) [1]	Performance evaluation: Stability (residual rate of cyclic peptide after alkali treatment) [1]
CC[C@H](C)[C@@H]1NC(=O)[C@@H](NC(=O)CNC(=O)[C@H](CCCCN)NC(=O)[C@H](CCCCN)NC(=O)[C@@H](N)CCCCN)CCCNC(=O)CSC[C@@H](C(=O)N[C@@H](C)C(=O)O)NC(=O)[C@H](CCCNC(=N)N)NC(=O)[C@H](Cc2ccccc2)NC(=O)[C@H]([C@@H](C)O)NC(=O)[C@H](CC(=O)O)NC(=O)CNC(=O)[C@H](CCCNC(=N)N)NC(=O)[C@@H]2CCCN2C1=O [Cyclic peptide 139, KKKG(Orn(acetyl))IPRGDTFR(C)A] (H-KKKG[Orn]IPRGDTFRCA-OH; linker 5-14 via X1)	< 50	–	C (The residual rate of the cyclic peptide is 30% or more and less than 50%.)	–
CC(C)[C@@H]1NC(=O)[C@@H](NC(=O)[C@H](C)NC(=O)[C@H](CCCCN)NC(=O)[C@H](CCCCN)NC(=O)[C@@H](N)CCCCN)CCSCC(=O)NCC[C@@H](C(=O)N[C@@H](C)C(=O)O)NC(=O)[C@H](C)NC(=O)[C@H](Cc2ccccc2)NC(=O)[C@H](C)NC(=O)[C@H](CC(=O)O)NC(=O)CNC(=O)[C@H](CCCNC(=N)N)NC(=O)[C@@H]2CCCN2C1=O [Cyclic peptide 91, KKKA-(Hcy)-VPRGDAFA(Dab(acetyl))A] (H-KKKA[hCys]VPRGDAFA[Dab]A-OH; linker 5-14 via X2)	–	< 50	–	A (The residual rate of the cyclic peptide is 70% or more.)
CC[C@H](C)[C@@H]1NC(=O)[C@@H](NC(=O)[C@H](C)NC(=O)[C@H](CCCCN)NC(=O)[C@H](CCCCN)NC(=O)[C@@H](N)CCCCN)CCSCC(=O)NCC[C@@H](C(=O)N[C@@H](C)C(=O)O)NC(=O)[C@H](CO)NC(=O)[C@H](Cc2ccccc2)NC(=O)[C@H]([C@@H](C)O)NC(=O)[C@H](CC(=O)O)NC(=O)CNC(=O)[C@H](CCCNC(=N)N)NC(=O)[C@@H]2CCCN2C1=O [Cyclic peptide 83, KKKA-(Hcy)-IPRGDTFS(Dab(acetyl))A] (H-KKKA[hCys]IPRGDTFS[Dab]A-OH; linker 5-14 via X2)	–	< 50	–	A (The residual rate of the cyclic peptide is 70% or more.)
CC(C)[C@@H]1NC(=O)[C@@H](NC(=O)[C@H](CCCCN)NC(=O)[C@H](CCCCN)NC(=O)[C@@H](N)CCCCN)CCSCC(=O)NCC[C@@H](C(=O)N[C@@H](C)C(=O)O)NC(=O)[C@H](C)NC(=O)[C@H](Cc2ccccc2)NC(=O)[C@H]([C@@H](C)O)NC(=O)[C@H](CC(=O)O)NC(=O)CNC(=O)[C@H](CCCNC(=N)N)NC(=O)[C@@H]2CCCN2C1=O [Cyclic peptide 165, KKK-(Hcy)-VPRGDTFA(Dab(acetyl))A] (H-KKK[hCys]VPRGDTFA[Dab]A-OH; linker 4-13 via X2)	< 50	–	A (The residual rate of the cyclic peptide is 70% or more.)	–
CC(C)[C@@H]1NC(=O)[C@@H](NC(=O)[C@H](C)NC(=O)[C@H](CCCCN)NC(=O)[C@H](CCCCN)NC(=O)[C@H](CCCCN)NC(=O)[C@H](CCCCN)NC(=O)[C@@H](N)CCCCN)CCSCC(=O)NCC[C@@H](C(=O)N[C@@H](C)C(=O)O)NC(=O)[C@H](C)NC(=O)[C@H](Cc2ccccc2)NC(=O)[C@H]([C@@H](C)O)NC(=O)[C@H](CC(=O)O)NC(=O)CNC(=O)[C@H](CCCNC(=N)N)NC(=O)[C@@H]2CCCN2C1=O [Cyclic peptide 111, KKKKKA-(Hcy)-VPRGDTFA(Dab(acetyl))A] (H-KKKKKA[hCys]VPRGDTFA[Dab]A-OH; linker 7-16 via X2)	< 50	–	A (The residual rate of the cyclic peptide is 70% or more.)	–

Second part, led by results:

Kd (human integrin αvβ5; [2]) [nM]	Kd (human integrin αvβ5; [3]) [nM]	Compound	Stability (molecule stability, residual rate of the cyclic peptide rank) [1]	Performance evaluation: Stability (residual rate of cyclic peptide after alkali treatment) [1]
–	50 to 100	CC[C@H](C)[C@@H]1NC(=O)[C@@H](NC(=O)[C@H](C)NC(=O)[C@H](CCCCN)NC(=O)[C@H](CCCCN)NC(=O)[C@@H](N)CCCCN)CCSCC(=O)NCC[C@@H](C(=O)N[C@@H](C)C(=O)O)NC(=O)[C@H](CCCNC(=N)N)NC(=O)[C@H](Cc2ccccc2)NC(=O)[C@H]([C@@H](C)O)NC(=O)[C@H](CC(=O)O)NC(=O)CNC(=O)[C@H](CCCNC(=N)N)NC(=O)[C@H]([C@@H](C)O)NC1=O [Cyclic peptide 76, KKKA-(Hcy)-ITRGDTFR(Dab(acetyl))A] (H-KKKA[hCys]ITRGDTFR[Dab]A-OH; linker 5-14 via X2)	–	A (The residual rate of the cyclic peptide is 70% or more.)
< 50	–	C[C@@H]1NC(=O)[C@H](Cc2ccccc2)NC(=O)[C@H]([C@@H](C)O)NC(=O)[C@H](CC(=O)O)NC(=O)CNC(=O)[C@H](CCCNC(=N)N)NC(=O)[C@@H]2CCCN2C(=O)[C@H](CC(=O)O)NC(=O)[C@@H](NC(=O)[C@H](CCCCN)NC(=O)[C@H](CCCCN)NC(=O)[C@@H](N)CCCCN)CCSCC(=O)NCC[C@@H](C(=O)O)NC1=O [Cyclic peptide 144, KKK-(Hcy)-DPRGDTFA(Dab(acetyl))] (H-KKK[hCys]DPRGDTFA[Dab]-OH; linker 4-13 via X2)	A (The residual rate of the cyclic peptide is 70% or more.)	–
< 50	–	CC(C)[C@@H]1NC(=O)[C@@H](NC(=O)[C@H](C)N)CCSCC(=O)NCC[C@@H](C(=O)N[C@@H](C)C(=O)O)NC(=O)[C@H](C)NC(=O)[C@H](Cc2ccccc2)NC(=O)[C@H]([C@@H](C)O)NC(=O)[C@H](CC(=O)O)NC(=O)CNC(=O)[C@H](CCCNC(=N)N)NC(=O)[C@@H]2CCCN2C1=O [Cyclic peptide 125, A-(Hcy)-VPRGDTFA(Dab(acetyl))A] (H-A[hCys]VPRGDTFA[Dab]A-OH; linker 2-11 via X2)	A (The residual rate of the cyclic peptide is 70% or more.)	–
–	50 to 100	CC[C@H](C)[C@@H]1NC(=O)[C@H](C)NC(=O)[C@H](C)NC(=O)[C@@H](NC(=O)[C@H](CCCCN)NC(=O)[C@H](CCCCN)NC(=O)[C@@H](N)CCCCN)CCSCC(=O)NCC[C@@H](C(=O)N[C@@H](C)C(=O)O)NC(=O)[C@H](CCCNC(=N)N)NC(=O)[C@H](Cc2ccccc2)NC(=O)[C@H](CC(N)=O)NC(=O)[C@H](CC(=O)O)NC(=O)CNC(=O)[C@H](CCCNC(=N)N)NC(=O)[C@@H]2CCCN2C1=O [Cyclic peptide 18, KKK-(Hcy)-AAIPRGDNFR(Dab(acetyl))A] (H-KKK[hCys]AAIPRGDNFR[Dab]A-OH; linker 4-15 via X2)	–	A (The residual rate of the cyclic peptide is 70% or more.)
–	50 to 100	CC[C@H](C)[C@@H]1NC(=O)[C@@H](NC(=O)[C@H](C)NC(=O)[C@H](CCCCN)NC(=O)[C@H](CCCCN)NC(=O)[C@@H](N)CCCCN)CCSCC(=O)NCC[C@@H](C(=O)N[C@@H](C)C(=O)O)NC(=O)[C@H](CCCNC(=N)N)NC(=O)[C@@H]2CCCN2C(=O)[C@H]([C@@H](C)O)NC(=O)[C@H](CC(=O)O)NC(=O)CNC(=O)[C@H](CCCNC(=N)N)NC(=O)[C@@H]2CCCN2C1=O [Cyclic peptide 80, KKKA-(Hcy)-IPRGDTPR(Dab(acetyl))A] (H-KKKA[hCys]IPRGDTPR[Dab]A-OH; linker 5-14 via X2)	–	A (The residual rate of the cyclic peptide is 70% or more.)
